Source: patent US6288091A, “Antiherpes virus compounds and methods for their preparation and use” (Boehringer Ingelheim Ltd., priority 1999, dated 2001)
Where two headings read alike, the source gives them in different places.

Assays:
[1] = target: T1, HSV-1 helicase-primase (Human herpesvirus 1, UniProt P10189+P10236); assay: HSV-1 DNA-dependent ATPase assay (inhibition of HSV-1 helicase-primase); format: biochemical
T1 construct: made in house; host or cells: Sf21 insect cells triply infected with recombinant baculoviruses (UL5, UL8, UL52)
T1 sequence (P10192 whole entry): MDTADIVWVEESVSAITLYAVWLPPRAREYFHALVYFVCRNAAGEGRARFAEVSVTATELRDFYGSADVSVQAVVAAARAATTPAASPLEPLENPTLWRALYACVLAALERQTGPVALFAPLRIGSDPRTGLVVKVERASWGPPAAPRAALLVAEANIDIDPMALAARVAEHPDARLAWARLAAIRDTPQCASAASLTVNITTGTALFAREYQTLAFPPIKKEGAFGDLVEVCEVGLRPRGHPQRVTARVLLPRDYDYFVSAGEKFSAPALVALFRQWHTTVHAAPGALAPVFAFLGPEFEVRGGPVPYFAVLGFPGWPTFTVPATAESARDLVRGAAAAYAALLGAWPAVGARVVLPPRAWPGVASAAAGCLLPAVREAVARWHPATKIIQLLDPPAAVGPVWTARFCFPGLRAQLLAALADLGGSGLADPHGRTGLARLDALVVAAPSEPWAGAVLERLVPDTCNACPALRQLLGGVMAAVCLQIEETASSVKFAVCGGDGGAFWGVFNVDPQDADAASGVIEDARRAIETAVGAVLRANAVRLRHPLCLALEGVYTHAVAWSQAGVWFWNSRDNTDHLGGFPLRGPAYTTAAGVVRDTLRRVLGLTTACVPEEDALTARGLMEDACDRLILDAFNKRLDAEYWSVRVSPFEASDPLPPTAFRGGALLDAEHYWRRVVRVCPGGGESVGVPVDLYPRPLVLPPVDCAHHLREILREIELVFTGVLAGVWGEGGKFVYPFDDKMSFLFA
T1 sequence (P10236 whole entry): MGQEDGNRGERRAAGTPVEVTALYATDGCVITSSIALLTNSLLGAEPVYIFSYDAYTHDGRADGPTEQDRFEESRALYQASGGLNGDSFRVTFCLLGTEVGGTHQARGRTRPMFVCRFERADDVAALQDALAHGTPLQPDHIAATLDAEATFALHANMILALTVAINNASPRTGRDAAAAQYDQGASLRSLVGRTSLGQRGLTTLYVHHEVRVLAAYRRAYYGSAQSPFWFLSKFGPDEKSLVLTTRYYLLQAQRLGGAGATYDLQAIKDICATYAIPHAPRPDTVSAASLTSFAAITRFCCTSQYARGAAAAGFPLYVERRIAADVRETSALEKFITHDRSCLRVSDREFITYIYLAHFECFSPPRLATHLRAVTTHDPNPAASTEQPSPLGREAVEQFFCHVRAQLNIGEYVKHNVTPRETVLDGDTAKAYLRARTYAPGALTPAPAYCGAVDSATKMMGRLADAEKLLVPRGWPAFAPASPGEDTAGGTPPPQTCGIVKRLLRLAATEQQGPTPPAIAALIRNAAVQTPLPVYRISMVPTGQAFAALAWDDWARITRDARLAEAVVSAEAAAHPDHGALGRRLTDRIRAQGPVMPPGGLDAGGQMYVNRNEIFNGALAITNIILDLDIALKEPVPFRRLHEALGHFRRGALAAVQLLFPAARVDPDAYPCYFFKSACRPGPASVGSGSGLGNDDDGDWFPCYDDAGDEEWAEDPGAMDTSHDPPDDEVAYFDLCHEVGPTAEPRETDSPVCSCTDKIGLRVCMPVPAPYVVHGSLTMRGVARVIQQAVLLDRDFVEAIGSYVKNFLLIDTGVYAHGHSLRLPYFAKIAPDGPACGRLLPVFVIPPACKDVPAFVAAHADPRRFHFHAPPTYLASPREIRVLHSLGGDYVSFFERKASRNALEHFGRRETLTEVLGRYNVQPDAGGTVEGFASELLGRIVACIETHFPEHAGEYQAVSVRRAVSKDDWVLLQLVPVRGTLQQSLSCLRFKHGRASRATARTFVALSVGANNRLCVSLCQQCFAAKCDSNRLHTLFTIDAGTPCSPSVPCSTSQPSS
T1 sequence (P10189 whole entry): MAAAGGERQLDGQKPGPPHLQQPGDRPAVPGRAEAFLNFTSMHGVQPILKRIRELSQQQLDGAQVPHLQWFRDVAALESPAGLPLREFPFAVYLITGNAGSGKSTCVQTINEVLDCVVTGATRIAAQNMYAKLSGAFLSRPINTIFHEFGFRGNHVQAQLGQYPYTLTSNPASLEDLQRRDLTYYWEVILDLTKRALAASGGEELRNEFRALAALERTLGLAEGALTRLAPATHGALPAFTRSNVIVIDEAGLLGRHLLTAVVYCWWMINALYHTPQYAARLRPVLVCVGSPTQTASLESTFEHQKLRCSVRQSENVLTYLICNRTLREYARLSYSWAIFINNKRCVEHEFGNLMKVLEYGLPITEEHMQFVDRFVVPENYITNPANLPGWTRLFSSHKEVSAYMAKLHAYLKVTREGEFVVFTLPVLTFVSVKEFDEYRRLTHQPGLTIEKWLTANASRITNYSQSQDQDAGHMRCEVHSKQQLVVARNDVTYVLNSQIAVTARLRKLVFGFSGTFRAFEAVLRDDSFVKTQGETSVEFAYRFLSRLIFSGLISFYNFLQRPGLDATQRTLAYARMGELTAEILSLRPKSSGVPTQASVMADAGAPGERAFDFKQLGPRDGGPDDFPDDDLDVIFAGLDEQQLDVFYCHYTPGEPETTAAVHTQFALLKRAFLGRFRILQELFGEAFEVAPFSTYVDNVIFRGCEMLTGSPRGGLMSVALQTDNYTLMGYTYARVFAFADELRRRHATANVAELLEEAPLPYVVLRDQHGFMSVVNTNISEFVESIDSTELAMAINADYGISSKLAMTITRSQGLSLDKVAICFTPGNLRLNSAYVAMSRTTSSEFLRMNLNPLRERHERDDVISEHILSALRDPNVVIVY
Summary of the method: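 Holoenzyme (UL5/UL8/UL52) expressed in baculovirus-infected Sf21 cells and purified, used at 3 μg/mL with 4 mM ATP and 25 μM primed M13 ssDNA in HEPES pH 7.5, 5.5 mM MgCl2, 3.3% DMSO. Incubated 20 min at 34°. Released phosphate read by malachite green at 650 nm, and activity taken from net absorbance with versus without inhibitor.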

[2] = test system: HCMV (strain AD169); assay: Inhibition of HCMV replication, ELISA assay (Hs-68 cells); format: cell-based, Human Cytomegalovirus (HCMV); settings: read-out: ELISA CMV EC50
Method: C) Inhibition of Human Cytomegalovirus (HCMV) Replication
The effect of compounds on the replication of HCMV has been measured by using an ELISA-based assay (ELISA) and a plaque reduction assay (PRA).
Hs-68 cells (ATCC # CRL 1635) were seeded in 96 well microtiter plates at 10,000 cells/well in 100 μL of DMEM medium (Gibco Canada Inc.) supplemented with 10% fetal bovine serum (FBS, Gibco Canada Inc.). The plates were incubated for 3 days at 37° to allow the cells to reach 80-90% confluency prior to the assay.
The medium was removed from wells by aspiration. The cells then were infected at a multiplicity of infection (MOI) of 0.01 PFU/cell with 50 μL of HCMV (strain AD169, ATCC VR-538) in DMEM medium supplemented with 5% heat inactivated FBS (assay medium). The virus was allowed to adsorb to cells for 2 h at 37°. Following viral adsorption, the medium was removed from the wells by aspiration. The cells were washed twice with 200 μL of assay medium to remove unabsorbed virus. The cells were then incubated with or without 100 μL of appropriate concentrations of test reagent in assay medium. After 8 days of incubation at 37°, the extent of viral replication was determined by an ELISA assay which detects the late structural protein p28 of HCMV.
Eight days after infection, the medium was aspirated from the wells. Non-specific binding sites were blocked by adding 200 μL of phosphate buffered saline containing 1% (w/v) bovine serum albumin (blocking buffer) to each well and incubating the plates for 30 min at room temperature. After removal of the blocking buffer by aspiration, the cells were fixed with 100 μL of cold ethanol-acetone solution (95:5) per well. The plates were placed at -20° for 30 min. The plates were washed 4 times with phosphate buffered saline containing 0.05% (v/v) polyoxyethylene sorbitan monolaurate (Tween®). Thereafter, 100 μL of mAb UL99 (Advanced Biotechnologies Inc., #13-130-100) recognizing HCMV protein p28 was added to each wells and plates were incubated for 2 h at room temperature. The plates were washed four times with 200 μL of the above-noted phosphate buffered saline/Tween-20® solution. The cells were then incubated with 100 μL of sheep anti-mouse IgGγ horseradish peroxidase conjugated for 2 h at room temperature. The plates were then washed four times with 200 μL of above-noted phosphate buffered saline/Tween-20® solution. Thereafter, 100 μL of ortho phenylenediamine dihydrochloride (OPD, Gibco Canada Inc.) solution was added to each well and the plates were agitated on a microplate shaker for 30 min in the dark. Color development was monitored at 450 nm using a microplate spectrophotometer.
The SAS program was used to calculate the % inhibition of viral replication and to generate EC50 values.
The EC50 values obtained according to this assay method for certain thiazolylphenyl derivatives of this invention are listed in the following tables under the heading ELISA CMV.

[3] = test system: HSV-1 strain F or KOS; assay: Inhibition of herpes simplex virus (HSV-1) replication in cell culture (BHK-21 cells, glycoprotein C ELISA); format: cell-based
Summary of the method: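 BHK-21 clone 13 cells infected with HSV-1 F or KOS at MOI 0.05 PFU/cell for 1 h at 37°, washed, then treated with compound in α-MEM/2% FBS for 24 h. Late glycoprotein C quantified by ELISA (mAb C11, HRP/OPD, 450 nm); EC50 from % inhibition.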

[4] = Human betaherpesvirus 5, AD169, Hs68, Group 1 Table 3 entries
[5] = Human alphaherpesvirus 1, BHK-21, Group 1 Table 3 entries
[6] = Human betaherpesvirus 5, AD169, Hs68, Group 1 Table 5 entries
[7] = Human alphaherpesvirus 1, BHK-21, Group 1 Table 5 entries
[8] = Human betaherpesvirus 5, AD169, Hs68, Group 1 Table 1 entries
[9] = Human alphaherpesvirus 1, BHK-21, Group 1 Table 1 entries

SMILES	IC50 ([1]; Group 1 Table 5 entries)	EC50 [2, 6]	EC50 [3, 7]	IC50 ([1]; Group 1 Table 1 entries)	EC50 [2, 8]	EC50 [3, 9]	other results
CNc1nc(-c2ccc(NC(=O)CN(Cc3ccccc3)C(=O)OC(C)(C)C)cc2)cs1 [Example 10]							IC50 ([1]; Group 1 Table 3 entries): 310 nM; EC50 [2, 4]: 1100 nM; EC50 [3, 5]: 8 nM
CN(C)c1nc(-c2ccc(NC(=O)CNCc3ccccc3)cc2)cs1 [Example 12]							IC50 ([1]; Group 1 Table 3 entries): > 50000 nM; EC50 [2, 4]: > 79000 nM; EC50 [3, 5]: 21000 nM
C[C@H](NCc1ccccc1)C(=O)Nc1ccc(-c2csc(N)n2)cc1 [Example 12]	1300 nM	4100 nM	820 nM				
CN(C)c1nc(-c2ccc(NC(=O)CNCC3CCCCC3)cc2)cs1 [Example 13]							IC50 ([1]; Group 1 Table 3 entries): > 50000 nM; EC50 [2, 4]: 36000 nM; EC50 [3, 5]: > 4000 nM
C[C@@H](NCc1ccccc1)C(=O)Nc1ccc(-c2csc(N)n2)cc1 [Example 13]	2000 nM	14000 nM	2000 nM				
Nc1nc(-c2ccc(NC(=O)CNCc3cccs3)cc2)cs1 [Example 13]				3800 nM	8300 nM	3700 nM	
CN(C)c1nc(-c2ccc(NC(=O)CN(Cc3ccccc3)C(=O)c3ccncc3)cc2)cs1 [Example 14]							IC50 ([1]; Group 1 Table 3 entries): > 50000 nM; EC50 [2, 4]: 20000 nM; EC50 [3, 5]: 500 nM
C[C@@H](C(=O)Nc1ccc(-c2csc(N)n2)cc1)N(Cc1ccccc1)C(=O)C1CCCCC1 [Example 14]	110 nM	10000 nM	9 nM				
Nc1nc(-c2ccc(NC(=O)CNCCN3CCOCC3)cc2)cs1 [Example 14]				7700 nM	67000 nM	3200 nM	
C[C@H](C(=O)Nc1ccc(-c2csc(N)n2)cc1)N(Cc1ccccc1)C(=O)C1CCCCC1 [Example 15]	41 nM	3200 nM	6 nM				
CN(C)c1nc(-c2ccc(NC(=O)CN(Cc3ccccc3)C(=O)OC(C)(C)C)cc2)cs1 [Example 16]							IC50 ([1]; Group 1 Table 3 entries): > 50000 nM; EC50 [2, 4]: 4800 nM; EC50 [3, 5]: 9 nM
C[C@@H](C(=O)Nc1ccc(-c2csc(N)n2)cc1)N(Cc1ccccc1)C(=O)OC(C)(C)C [Example 16]	460 nM	2800 nM	79 nM				
CN(C)c1nc(-c2ccc(NC(=O)CN(CC3CCCCC3)C(=O)OC(C)(C)C)cc2)cs1 [Example 17]							IC50 ([1]; Group 1 Table 3 entries): > 50000 nM; EC50 [2, 4]: 4000 nM; EC50 [3, 5]: > 8000 nM
C[C@H](C(=O)Nc1ccc(-c2csc(N)n2)cc1)N(Cc1ccccc1)C(=O)OC(C)(C)C [Example 17]	110 nM	7600 nM	55 nM				
CC(=O)Nc1nc(-c2ccc(NC(=O)CN(Cc3ccccc3)C(=O)c3ccncc3)cc2)cs1 [Example 19]							IC50 ([1]; Group 1 Table 3 entries): > 50000 nM; EC50 [2, 4]: 28000 nM; EC50 [3, 5]: 9000 nM
CC(C)(C)C(=O)N[C@@H](Cc1ccccc1)C(=O)Nc1ccc(-c2csc(N)n2)cc1 [Example 20]	1300 nM	10000 nM	600 nM				

SMILES	IC50 ([1]; Group 1 Table 5 entries)	EC50 [2, 6]	EC50 [3, 7]	IC50 ([1]; Group 1 Table 1 entries)	EC50 [2, 8]	EC50 [3, 9]	other results
CC(=O)N[C@@H](Cc1ccccc1)C(=O)Nc1ccc(-c2csc(N)n2)cc1 [Example 21]	3100 nM	4400 nM	4700 nM				
CC(C)OC(=O)N[C@@H](Cc1ccccc1)C(=O)Nc1ccc(-c2csc(N)n2)cc1 [Example 22]	830 nM	18000 nM	250 nM				
CC(C)(C)OC(=O)N[C@@H](CC1CCCCC1)C(=O)Nc1ccc(-c2csc(N)n2)cc1 [Example 24]	17 nM	8100 nM	43 nM				
Cc1cccc(C)c1C(=O)N(CC(=O)Nc1ccc(-c2csc(N)n2)cc1)Cc1ccccc1 [Example 25]				47 nM	4400 nM	11 nM	
CC(C)(C)OC(=O)N[C@@H](Cc1cccnc1)C(=O)Nc1ccc(-c2csc(N)n2)cc1 [Example 26]	130 nM	19900 nM	43 nM				
Nc1nc(-c2ccc(NC(=O)NN3CCCCC3)cc2)cs1 [Example 27]							IC50 ([1]; Group 2 Table 1 entries): 50000 nM; EC50 ([2]; Human betaherpesvirus 5, AD169, Hs68, Group 2 Table 1 entries): 15400 nM; EC50 ([3]; Human alphaherpesvirus 1, BHK-21, Group 2 Table 1 entries): 15700 nM
CC1(C(=O)N(CC(=O)Nc2ccc(-c3csc(N)n3)cc2)Cc2ccccc2)CCCCC1 [Example 35]				35 nM	8100 nM	6 nM	
CC(C)(C)OC(=O)N1CCC(C(=O)N(CC(=O)Nc2ccc(-c3csc(N)n3)cc2)Cc2ccccc2)CC1 [Example 40]				1700 nM	25000 nM	700 nM	
COc1ccc(CN(CC(=O)Nc2ccc(-c3csc(N)n3)cc2)C(=O)C2CCCCC2)cc1 [Example 46]				75 nM	8000 nM	94 nM	
Nc1nc(-c2ccc(NC(=O)CN(Cc3ccccn3)C(=O)c3ccncc3)cc2)cs1 [Example 56]				1200 nM	38000 nM	550 nM	
Nc1nc(-c2ccc(NC(=O)CN(Cc3ccncc3)C(=O)c3ccc(F)cc3)cc2)cs1 [Example 73]				88 nM	12600 nM	17 nM	
Nc1nc(-c2ccc(NC(=O)CN(CC3CCCCC3)C(=O)CC3CCCCC3)cc2)cs1 [Example 76]				80 nM	25000 nM	160 nM	
COC(=O)N(CC(=O)Nc1ccc(-c2csc(N)n2)cc1)Cc1ccccc1 [Example 87]				2800 nM	18000 nM	1100 nM	
C[C@H](c1ccccc1)N(CC(=O)Nc1ccc(-c2csc(N)n2)cc1)C(=O)OC(C)(C)C [Example 88]				2400 nM	> 47000 nM	1200 nM	
CC(C)(C)OC(=O)N(CC(=O)Nc1ccc(-c2csc(N)n2)cc1)Cc1ccc(Cl)cc1 [Example 91]				70 nM	1600 nM	25 nM	
CN(C)c1cccc2c(S(=O)(=O)N(CC(=O)Nc3ccc(-c4csc(N)n4)cc3)Cc3ccccc3)cccc12 [Example 98]				500 nM	> 2000 nM	2100 nM	
